Tests used:
[1] = system: LX-2 cells; experiment: ATP secretion from LX-2 cells; type: cell-based, human; conditions: 10 μM clodronate
Procedure: Cells of the immortalized human hepatic stellate cell line LX-2 (manufactured by Merck) was cultured in Dulbecco's modified Eagle's medium (DMEM, 4500 mg/l Glucose, D5796, manufactured by Sigma-Aldrich) supplemented with inactivated 2% fetal bovine serum (FBS), 10 IU/ml penicillin, and 10 IU/ml streptomycin in a T25 or T75 flask at 37° C. in 5% CO2.
LX-2 cells (2×10^6 cells per well) were seeded in a collagen-coated 6-well culture dish containing Dulbecco's modified Eagle's medium (manufactured by Sigma-Aldrich) supplemented with 10 IU/ml penicillin, […] 2% fetal bovine serum, and cultured in 5% CO2 at 37° C. After 3 days, the LX-2 cells were washed twice and preincubated in Krebs-Ringer buffer (10 mM HEPES-Tris, pH 7.4, 128 mM NaCl, 1.9 mM KCl, 1.2 mM KH2PO4, 1.3 mM MgSO4, 26 mM NaHCO3, 2.4 mM CaCl2, 10 mM glucose, 0.2% (w/v) bovine serum albumin) with or without 10 μM clodronate. The LX-2 cells were then stimulated with Krebs-Ringer buffer supplemented with ionomycin (manufactured by Cayman) regardless of whether clodronate was present or not. For the stimulation, 1 mM EGTA (manufactured by Dojindo) or 10 μM serotonin (5-HT, manufactured by Sigma-Aldrich) was used. The ATP concentration in the culture supernatant was measured in the same manner as in Example 6.
For an siRNA experiment, a TriFECTa (trademark) RNAi Kit (manufactured by Integrated DNA Technologies) was used. A scramble RNA (scRNA) as a control siRNA, or a VNUT-specific siRNA, was incubated with Lipofectamine 3000 reagent (manufactured by Invitrogen) in OptiMEM reduced-serum medium (#31985070, manufactured by Gibco) at room temperature for 15 minutes, and then added directly to the cultured cells. The LX-2 cells as the transfection mixture were plated, and then cultured for 48 hours. The base sequences of VNUT siRNA forward and VNUT siRNA reverse, used for the above kit, are shown in SEQ ID NOs: 1 and 2, respectively. A positive control for an endogenous gene (#51-01-08-02) and a negative control (#51-01-14-03) were used.

[2] = system: MCD diet-induced NASH model; conditions: administration of clodronate, Non Patent Literature 4; cited from earlier work
[3] = clodronate; cited from earlier work
[4] = system: catecholamine transport of chromaffin granule membranes; experiment: Catecholamine (dopamine) transport in chromaffin granule membranes; type: biochemical, cattle; conditions: role: inhibitor
Procedure: Chromaffin granule membranes were prepared from adrenal glands collected from slaughtered cattle according to Reference A (Nathan Nelson et al., 1988, Chromaffin Granule Proton Pump, Methods in Enzymology, 157, 619-633). Chromaffin granule membranes prepared by sucrose density gradient centrifugation were suspended in 2 ml of SME buffer (20 mM MOPS-tris (pH 7.0), 0.3 M sucrose, 5 mM EDTA, 10 μg/ml leupeptin, and 10 μg/ml pepstatin)+25% glycerol, and the resulting suspension was aliquoted and stored at −80° C. Under these conditions, the ATP transport activity, the V-ATPase activity, and the catecholamine transport activity remain fully active for at least one year.
A catecholamine transport inhibition experiment was carried out in the same manner as the ATP transport experiment except that the experiment used a measurement liquid containing 20 mM MOPS-tris (pH 7.0), 0.1 M sucrose, 0.1 M potassium chloride, 5 mM magnesium acetate, and about 5 μg of chromaffin granule membranes. To 0.5 ml of the measurement liquid, 2 mM ATP was added, and the resulting mixture was incubated at 30° C. for about 5 minutes, followed by addition of 3[H]-dopamine thereto to a final concentration of 10 μM. After further incubation at 30° C. for 15 minutes, 0.2 ml of the reaction liquid was subjected to suction filtration through a Millipore MCE membrane filter with a pore size of 0.45 μm, and the radioactivity on the filter was measured (N=3). The substrate, 3[H]-dopamine, was prepared by mixing 3,4-[RING-2,5,6-^3H]dihydroxyphenylethylamine (dopamine) (30 Ci/mmol) (manufactured by New England Nuclear) with dopamine hydrochloride (manufactured by LKT Laboratories) such that a final concentration of […] was achieved during the use.
Chromaffin granule membrane vesicles were prepared in the same manner as in Example 5, and uptake of radiolabeled ATP into the vesicles was measured. Transport activity of catecholamine (dopamine) and ATP-dependent proton transport by V-ATPase were also measured in the same manner as in Example 5.

[5] = PEP; cited from earlier work
[6] = system: V-ATPase; experiment: Inhibitory effect on V-ATPase (data not shown)
[7] = system: α-SMA in mouse liver; experiment: α-SMA Western blotting of liver tissue of TAA-treated mice; type: in vivo; conditions: imeglimin 200 mg/kg p.o. (FIG. 31)
Procedure: In accordance with Example 15, immunostaining of α-SMA in liver sections and observation by fluorescence microscopy were performed for the normal control group, the TAA group, and the TAA+IMG group, and for a TAA+Clo group, which was treated in the same manner as the TAA+IMG group except that clodronate, instead of imeglimin, was administered at 30 mg/kg by blending it in the drinking water from 1 week after the start of TAA administration.
Further, α-SMA was compared by Western blotting. Fresh mouse liver was homogenized in Western lysis buffer (20 mM Tris-HCl, pH 7.6, 150 mM NaCl, 2 mM EDTA, 0.5% NP-40) supplemented with protease and phosphatase inhibitor tablets (manufactured by Roche Applied Science), followed by centrifugation at 10,000×g at 4° C. for 5 minutes to obtain a supernatant. Protein content in the supernatant was quantified using a BCA Protein Assay Kit (manufactured by ThermoFisher Scientific). […] Thereafter, protein bands were visualized using an […] (ECL) Western blotting detection system (manufactured by GE Healthcare) and detected with an image analyzer LAS-4000 mini (manufactured by Fujifilm).

O=P(O)(O)C(Cl)(Cl)P(=O)(O)O [clodronate]
5-HT-promoted ATP secretion ([1]; 10 μM 5-HT, N=6 (FIG. 25)): strongly inhibited
ATP exocytosis ([1]; ionomycin, N=6 (FIG. 24)): inhibited
NASH activity score, inflammatory cell infiltration, and hepatic fibrosis [2]: improves
absorption [3]: extremely low absorption
accumulation in bone [3]: accumulate in bone
serious side effect [3]: jaw osteonecrosis

C=C(OP(=O)(O)O)C(=O)O [PEP, phosphoenolpyruvic acid]
ATP-dependent dopamine transport activity ([4]; 5 mM PEP, 10 μM 3H-dopamine, 2 mM ATP, N=3, control 11.07±0.129): 12.41±0.250 nmol/mg protein
inhibition of catecholamine transport ([4]; up to 5 mM PEP (data not shown)): did not inhibit
permeation of the cell membrane [5]: freely permeate the cell membrane

C[C@@H]1N=C(N)NC(N(C)C)=N1 [imeglimin]
inhibitory effect on V-ATPase [6]: neither imeglimin nor metformin exhibited a strong inhibitory effect
TAA-induced increase in α-SMA (Western blotting) [7]: markedly suppressed

From patent US20260306500A1, “METHOD OF INHIBITING ADENOSINE TRIPHOSPHATE SECRETION, METHOD OF INHIBITING HEPATIC STELLATE CELL ACTIVATION, METHOD OF DEACTIVATING HEPATIC STELLATE CELL, METHOD OF TREATING HEPATIC FIBROSIS, METHOD OF TREATING NON-ALCOHOLIC STEATOHEPATITIS, AND METHOD OF TREATING PSORIASIS” (Kurume University, priority 2023, published 2026)
